Measured values taken from patent US20260345619A1 (Principia Biopharma Inc., priority 2023, published 2026).

What was measured:
[1] = humans, oral; cited from earlier work
BTK = conditions: preclinical assays; cited from earlier work
[2] = Safety: adverse events (TEAEs, SAEs, AESIs), vital signs, labs; format: in vivo, human; conditions: for Participants with any TEAE / Participants with any TEAE leading to death / Participants with any TEAE related to IMP / Participants with any severe TEAE / Participants with any treatment emergent AESI / Participants with any treatment emergent SAE: safety population
Text: In terms of safety, […], adverse events of special interest (AESIs), vital signs, and laboratory analyses were to be reported.
Safety assessments included physical examinations, measurements of vital signs, electrocardiograms, clinical safety laboratory assessments, and pregnancy testing.
An AE is any untoward medical occurrence in a patient or clinical study participant, temporally associated with the use of study intervention, whether or not considered related to the study intervention.
An adverse event of special interest (AESI) is an AE (serious or nonserious) of scientific and medical concern specific to the Sponsor's product or program, for which ongoing monitoring and immediate notification by the Investigator to the Sponsor was required. Such events may have required further investigation in order to characterize and understand them. Adverse events of special interest may have been added, modified or removed during a study by protocol amendment. AESIs include the following: • Pregnancy of a participant entered in a study as well as pregnancy occurring in a female partner of a participant entered in a study with IMP. • Symptomatic overdose (serious or nonserious) with IMP. • Other project-specific AESI(s), including: severe infections including opportunistic infections; tuberculosis or initiation of medications for suspected tuberculosis; active COVID-19 infection as documented by a positive COVID-19 molecular test; major hemorrhagic events, including symptomatic bleeding in a critical area or organ such as the CNS, or intraocular bleeding, resulting in an SAE; serious adverse events (or non-serious adverse events with a severity level consistent with Grade 3 CTCAE of cytopenia; and atrial fibrillation.
The safety variables, including AEs, vital signs, physical examination, and laboratory values were to be summarized using descriptive statistics in each treatment group in the safety population.
All safety analyses were to be performed on the safety population. The baseline value is defined generally as the last available value before the first dose of IMP.
In general, AEs were to be analyzed in the following 3 categories: • Pre-treatment AEs: AEs that developed, worsened, or became serious during the pre-treatment period. • TEAEs: AEs that developed, worsened, or became serious during the treatment-emergent period. • Post-treatment AEs: AEs that developed, worsened, or became serious during the post-treatment period.

CC(C)(C=C(C#N)C(=O)N1CCC[C@@H](n2nc(-c3ccc(Oc4ccccc4)cc3F)c3c(N)ncnc32)C1)N1CCN(C2COC2)CC1 (mixture of isomers) [rilzabrutinib, (R)-2-[3-[4-amino-3-(2-fluoro-4-phenoxy-phenyl)pyrazolo[3,4-d]pyrimidin-1-yl]piperidine-1-carbonyl]-4-methyl-4-[4-(oxetan-3-yl)piperazin-1-yl]pent-2-enenitrile]
absorption [1]: rapidly absorbed
half-life [1]: 3 to 4 h
pharmacokinetic variability [1]: variable pharmacokinetics
binding to BTK over time (BTK): persisted
overall safety ([2]; 400 mg BID and TID, asthma): generally safe, with no evidence of new safety concerns
Participants with any TEAE ([2]; 400 mg BID, N = 32): 14 (43.8) n (%)
Participants with any TEAE leading to death ([2]; 400 mg BID, N = 32): 0 n (%)
Participants with any TEAE related to IMP ([2]; 400 mg BID, N = 32): 5 (15.6) n (%)
Participants with any severe TEAE ([2]; 400 mg BID, N = 32): 0 n (%)
Participants with any treatment emergent AESI ([2]; 400 mg BID, N = 32): 1 (3.1) n (%)
Participants with any treatment emergent SAE ([2]; 400 mg BID, N = 32): 2 (6.3) n (%)
Participants with any TEAE ([2]; 400 mg TID, N = 64): 26 (40.6) n (%)
Participants with any TEAE leading to death ([2]; 400 mg TID, N = 64): 0 n (%)
Participants with any TEAE related to IMP ([2]; 400 mg TID, N = 64): 10 (15.6) n (%)
Participants with any severe TEAE ([2]; 400 mg TID, N = 64): 1 (1.6) n (%)
Participants with any treatment emergent AESI ([2]; 400 mg TID, N = 64): 3 (4.7) n (%)
Participants with any treatment emergent SAE ([2]; 400 mg TID, N = 64): 0 n (%)
Participants with any TEAE ([2]; combined BID and TID, N = 96): 40 (41.7) n (%)
Participants with any TEAE leading to death ([2]; combined BID and TID, N = 96): 0 n (%)
Participants with any TEAE related to IMP ([2]; combined BID and TID, N = 96): 15 (15.6) n (%)
Participants with any severe TEAE ([2]; combined BID and TID, N = 96): 1 (1.0) n (%)
Participants with any treatment emergent AESI ([2]; combined BID and TID, N = 96): 4 (4.2) n (%)
Participants with any treatment emergent SAE ([2]; combined BID and TID, N = 96): 2 (2.1) n (%)
